From ChEMBL document CHEMBL4184257, “Design, synthesis and antibacterial evaluation of honokiol derivatives” (2018) come the findings set out here.

One experiment concerns Escherichia coli. The experiment is described as follows: Antibacterial activity against Escherichia coli ATCC 25922 incubated at 37 degC for 20 hrs by standard broth microdilution method. It counts as functional. The conditions noted are these: ATCC 25922, 20 h. (In general: In broth dilution the organism is exposed to a series of concentrations in liquid medium.)
The test system of experiment [1] is Pseudomonas aeruginosa. As to the kind of experiment: Antibacterial activity against Pseudomonas aeruginosa ATCC 27853 incubated at 37 degC for 20 hrs by agar dilution method. It is filed as functional. The conditions noted are these: ATCC 27853, 20 h. For orientation: Agar dilution tests growth on a series of plates holding different concentrations.
Experiment [2] has as its system Pseudomonas aeruginosa. The experiment is described as follows: Antibacterial activity against Pseudomonas aeruginosa ATCC 9027 incubated at 37 degC for 20 hrs by agar dilution method. It counts as functional. The conditions noted are these: ATCC 9027, 20 h.
Experiment [3] concerns Pseudomonas aeruginosa. The experiment is described as follows: Antibacterial activity against Pseudomonas aeruginosa CMCC 10104 incubated at 37 degC for 20 hrs by agar dilution method. It is filed as functional. The conditions noted are these: CMCC 10104, 20 h.
Experiment [4] has as its system Klebsiella pneumoniae. As to the kind of experiment: Antibacterial activity against Klebsiella pneumoniae ATCC 4352 incubated at 37 degC for 20 hrs by agar dilution method. The following applies: ATCC 4352, 20 h. It is filed as functional.
The subject of experiment [5] is Klebsiella pneumoniae. As to the kind of experiment: Antibacterial activity against Klebsiella pneumoniae ATCC 700603 incubated at 37 degC for 20 hrs by agar dilution method. The conditions noted are these: ATCC 700603, 20 h. It is filed as functional.
Experiment [6] deals with Klebsiella pneumoniae. The experiment is described as follows: Antibacterial activity against Klebsiella pneumoniae CMCC 46117 incubated at 37 degC for 20 hrs by agar dilution method. It counts as functional. The conditions noted are these: CMCC 46117, 20 h.
Experiment [7] has as its system Staphylococcus aureus. The experiment is described as follows: Antibacterial activity against Staphylococcus aureus ATCC 25923 incubated at 37 degC for 20 hrs by standard broth microdilution method. It is filed as functional. The following applies: ATCC 25923, 20 h.
Another experiment has as its system Streptococcus pyogenes. As to the kind of experiment: Antibacterial activity against Streptococcus pyogenes ATCC 19615 incubated at 37 degC for 20 hrs by agar dilution method. It is filed as functional. The following applies: ATCC 19615, 20 h.
In experiment [8] the test system is Staphylococcus epidermidis. As to the kind of experiment: Antibacterial activity against Staphylococcus albus AS1.3374 incubated at 37 degC for 20 hrs by agar dilution method. It is filed as functional. The following applies: AS1.3374, 20 h.
The subject of experiment [9] is Staphylococcus epidermidis. The experiment is described as follows: Antibacterial activity against Staphylococcus epidermidis ATCC 12228 incubated at 37 degC for 20 hrs by agar dilution method. It counts as functional. The following applies: ATCC 12228, 20 h.
Experiment [10] has as its system Staphylococcus aureus. As to the kind of experiment: Bacteriostatic activity against Staphylococcus aureus ATCC 25923 at 1 times MIC incubated for 24 hrs by time kill curve assay. It counts as functional, organism-based.
Experiment [11] relates to Staphylococcus aureus. As to the kind of experiment: Bactericidal activity against Staphylococcus aureus ATCC 25923 at 4 times MIC incubated for 24 hrs by time kill curve assay. It is filed as functional, organism-based.
The test system of experiment [12] is Staphylococcus aureus. The experiment is described as follows: Antibacterial activity against Staphylococcus aureus ATCC 29213 incubated at 37 degC for 20 hrs by agar dilution method. It is filed as functional. The following applies: ATCC 29213, 20 h.
In experiment [13] the test system is Staphylococcus aureus. As to the kind of experiment: Antibacterial activity against Staphylococcus aureus ATCC 6538 incubated at 37 degC for 20 hrs by agar dilution method. It is filed as functional. The conditions noted are these: ATCC 6538, 20 h.
In experiment [14] the test system is Staphylococcus aureus. The experiment is described as follows: Antibacterial activity against Staphylococcus aureus CMCC 26003 incubated at 37 degC for 20 hrs by agar dilution method. It counts as functional. The conditions noted are these: CMCC 26003, 20 h.
The test system of experiment [15] is Staphylococcus aureus. The experiment is described as follows: Antibacterial activity against Staphylococcus aureus ATCC 33591 incubated at 37 degC for 20 hrs by agar dilution method. It counts as functional. The conditions noted are these: ATCC 33591, 20 h.
Experiment [16] concerns Staphylococcus aureus. The experiment is described as follows: Antibacterial activity against Staphylococcus aureus ATCC 43300 incubated at 37 degC for 20 hrs by agar dilution method. The following applies: ATCC 43300, 20 h. It counts as functional.
The subject of experiment [17] is Enterococcus faecalis. As to the kind of experiment: Antibacterial activity against Enterococcus faecalis ATCC 33186 incubated at 37 degC for 20 hrs by agar dilution method. It is filed as functional. The conditions noted are these: ATCC 33186, 20 h.
For experiment [18], the system named is Enterococcus faecalis. The experiment is described as follows: Antibacterial activity against Enterococcus faecalis ATCC 35667 incubated at 37 degC for 20 hrs by agar dilution method. The conditions noted are these: ATCC 35667, 20 h. It is filed as functional.
Experiment [19] has as its system Staphylococcus aureus. As to the kind of experiment: Bactericidal activity against Staphylococcus aureus ATCC 25923 assessed as bacterial load at 4 times MIC measured within 2 hrs post dose by time kill curve assay. It counts as functional.
The subject of experiment [20] is Staphylococcus aureus. The experiment is described as follows: Bacteriostatic activity against Staphylococcus aureus ATCC 25923 assessed as bacterial load at 1 times MIC incubated for 24 hrs by time kill curve assay. It counts as functional.
Experiment [21] relates to Staphylococcus aureus. The experiment is described as follows: Induction of cell wall destruction in Staphylococcus aureus ATCC 25923 at 1 times MIC incubated for 0.5 hrs Gram staining based assay. It counts as functional, organism-based.
In experiment [22] the test system is Staphylococcus aureus. The experiment is described as follows: Induction of cell wall destruction in Staphylococcus aureus ATCC 25923 at 4 times MIC incubated for 1 hr Gram staining based assay. It is filed as functional, organism-based.

≈ marks a conversion by molar mass, not a printed value. Calls of active or inactive are those of the source.

The term MIC denotes the smallest concentration in the dilution series that meets the test's criterion for growth inhibition. The term MIC90 denotes an inhibitory concentration at the 90% level, which refers to growth in some studies and to a panel of isolates in others.

In the case of `NC[C@H]1O[C@H](O[C@H]2[C@H](O)[C@@H](O[C@H]3O[C@H](CO)[C@@H](O)[C@H](N)[C@H]3O)[C@H](N)C[C@@H]2N)[C@H](N)C[C@@H]1O` [TOBRAMYCIN], the MIC in the experiment on Escherichia coli is 0.25 µg/mL (≈ 0.535 µM); against Pseudomonas aeruginosa [1] it was 0.25 µg/mL (≈ 0.535 µM); against Pseudomonas aeruginosa [2], 0.5 µg/mL (≈ 1.07 µM); with Pseudomonas aeruginosa [3], 2 µg/mL (≈ 4.28 µM); in the experiment on Klebsiella pneumoniae [4], 1 µg/mL (≈ 2.14 µM); against Klebsiella pneumoniae [5] it was 4 µg/mL (≈ 8.56 µM). Also, the MIC against Klebsiella pneumoniae [6] came to 0.25 µg/mL (≈ 0.535 µM).
With `C=CCc1cc(CN2CCN(C(C)C)CC2)c(O)c(-c2ccc(O)c(CC=C)c2)c1`, the MIC90 was above 256 µg/mL against Staphylococcus aureus [7] and 128 µg/mL (≈ 315 µM) against Escherichia coli.
Take `CC(=O)NC[C@H]1CN(c2ccc(N3CCOCC3)c(F)c2)C(=O)O1` [LINEZOLID]: the MIC90 with Staphylococcus aureus [7] is 2 µg/mL (≈ 5.93 µM); in the experiment with Escherichia coli it was above 256 µg/mL. Besides, the MIC with Streptococcus pyogenes amounted to 0.5 µg/mL (≈ 1.48 µM); in experiment [8] it was 2 µg/mL (≈ 5.93 µM); in experiment [9] it was 2 µg/mL (≈ 5.93 µM). For the same compound, the result in the experiment with Staphylococcus aureus [10] and with Staphylococcus aureus [11] was Active.
Take `C=CCc1cc(CO)c(O)c(-c2cc(CO)c(O)c(CC=C)c2)c1`: the MIC90 is 64 µg/mL (≈ 196 µM) against Staphylococcus aureus [7] and above 256 µg/mL in the experiment on Escherichia coli.
In the same order, the values of `C=CCc1cc(CN2CCC(N3CCNCC3)CC2)c(O)c(-c2ccc(O)c(CC=C)c2)c1` are 32 µg/mL (≈ 71.5 µM) and above 256 µg/mL.
On to `C=CCc1cc(CN2CCCC(C)C2)c(O)c(-c2ccc(O)c(CC=C)c2)c1` (stereo not given), for which the MIC90 against Staphylococcus aureus [7] and in the experiment with Escherichia coli was above 256 µg/mL in each case.
For `C=CCc1cc(CN2CCC(N3CCC(N)CC3)CC2)c(O)c(-c2ccc(O)c(CC=C)c2)c1`, the minimum inhibitory concentration (MIC) against Staphylococcus aureus [7] was 8 µg/mL (≈ 17.3 µM); with Escherichia coli it was 16 µg/mL (≈ 34.7 µM); in the experiment on Staphylococcus aureus [12], 8 µg/mL (≈ 17.3 µM); against Staphylococcus aureus [13], 8 µg/mL (≈ 17.3 µM); against Staphylococcus aureus [14] it was 8 µg/mL (≈ 17.3 µM); in the experiment on Staphylococcus aureus [15] it was 8 µg/mL (≈ 17.3 µM). The MIC (in the experiment with Staphylococcus aureus [16]; with Streptococcus pyogenes; in experiment [8]; in [9]; in the experiment on Enterococcus faecalis [17]; in the experiment on Enterococcus faecalis [18]) was 8 µg/mL (≈ 17.3 µM) each time. The MIC came to 64 µg/mL (≈ 139 µM) against Pseudomonas aeruginosa [1]; 64 µg/mL (≈ 139 µM) with Pseudomonas aeruginosa [2]; 64 µg/mL (≈ 139 µM) against Pseudomonas aeruginosa [3]; 8 µg/mL (≈ 17.3 µM) against Klebsiella pneumoniae [4]; 64 µg/mL (≈ 139 µM) against Klebsiella pneumoniae [5]; 8 µg/mL (≈ 17.3 µM) in the experiment on Klebsiella pneumoniae [6]. The MIC90 was found to be 8 µg/mL (≈ 17.3 µM) with Staphylococcus aureus [7] and 16 µg/mL (≈ 34.7 µM) against Escherichia coli. Moreover, the Activity result with Staphylococcus aureus [10] is “Dose-dependent effect”; in the experiment with Staphylococcus aureus [11], “Dose-dependent effect”; with Staphylococcus aureus [19] it was 0 log10CFU/ml; in the experiment with Staphylococcus aureus [20] it was 4 - 5 log10CFU/ml. In addition, the result with Staphylococcus aureus [21] and with Staphylococcus aureus [22] was Active.
For the compound `C=CCc1cc(CN2CCN(CCOC)CC2)c(O)c(-c2ccc(O)c(CC=C)c2)c1`, the MIC90 against Staphylococcus aureus [7] and against Escherichia coli was above 256 µg/mL in each case.
